Test results as given in article PMC10180065, “Mechanistic Studies of Arene–Ruthenium(II) Complexes with Carbothioamidopyrazoles as Alternative Cancer Drugs” (Molecules, 2023).

System: HT29
Experiment: MTT cytotoxicity, HT29
Type: cell-based, human
Conditions: 48 h incubation, read-out: Cytotoxic effect, IC50
Description: (§1) Cytotoxicity was evaluated against fifteen adherent human cancer cell lines using the MTT test: colorectal adenocarcinoma cells Caco2 (ATCC® HTB-37™), colorectal adenocarcinoma cells HT29 (ATCC® HTB-38™), colon colorectal carcinoma HCT116 (ATCC® CCL-247™), colon adenocarcinoma COLO205 (ATCC® CCL-222™), colorectal adenocarcinoma SW620 (ATCC® CCL-227™), colorectal adenocarcinoma grade IV LoVo (ATCC® CCL-229™), hepatocellular carcinoma Hep 3b (ATCC® HB-8064™), endometrium adenocarcinoma HEC1A (ATCC® HTB-112™), Ishikawa (99040201; Sigma–Aldrich Sigma, St. Louis, MO, USA), cervical adenocarcinoma cells HeLa (ATCC® CCL-2™), lung epithelial carcinoma A549 (ATCC® CRM-CCL-185™), breast epithelial adenocarcinoma cell positive for estrogen and progesterone receptors MCF7 (ATCC® HTB-22™) and negative for expression of estrogen receptor HCC38 (ATCC® CRL-2314™), acute promyelocytic leukemia HL-60 (ATCC® CCL-240™), skin melanoma WM115 (ATCC® CRL-1676™), and 1 suspension cancer cell line: acute lymphoblastic leukemia NALM6 (purchased from the German Collection of Microorganisms and Cell Cultures). HT29, NALM6, HCC-38 and HL-60 cells were cultured in RPMI 1640 medium (Thermo Fisher Scientific, Waltham, MA, USA) supplemented with 10% fetal bovine serum and antibiotic (gentamicin 25 μg ml^−1) (Gibco, Grand Island, New York, NY, USA). For the remaining tumor cell lines, Dulbecco’s minimal essential medium (DMEM, Lonza, Visp, Switzerland) supplemented with 10% fetal bovine serum and antibiotic instead of RPMI 1640 was used. In addition, Human Microvascular Endothelial Cells (HMEC1), which were obtained from the American Type Culture Collection (Manassas, VA, USA), were used as a model of normal cells. HMEC-1 were cultured in MCDB131 medium (Corning Life Sciences, Corning, NY, USA), supplemented with 10% fetal bovine serum, 10 ng/mL Epidermal Growth Factor (Millipore, Burlington, MA, USA) and 10 mM glutamine (Corning Life Sciences). All cells were grown at 37 °C in humidified atmosphere of 5% CO2 in air. The exponential growth of cells was maintained by regular passaging at 90% confluence three times a week using 0.025% trypsin/EDTA (Gibco, Grand Island, New York, NY, USA).
(§2) The cytotoxicity was tested by a standard MTT [3-(4,5-dimethylthiazol-2-yl)-2,5-diphenyltetrazolium bromide] (Sigma, St. Louis, MO, USA) microplate cell viability assay. The anticancer activity of the investigated compounds was evaluated in vitro on the basis of their ability to inhibit the proliferation of various cancer cells. Exponentially growing cells were seeded a day before the experiment into a 96-well microplate (Nunc, Roskilde, Denmark) at a density up to 6–8 × 10^3 cells/mL (depending on the cell line) and exposed to the test compounds at a wide range of concentrations for 48 h. Subsequently, various concentrations of the studied compounds (10^−7–10^−5 M) freshly prepared in DMSO (final concentration of <0.1% DMSO) and diluted with complete culture medium were added. After 48 h incubation, the cells were immediately subjected to a cell viability assay. At this time point, the number of viable cells in each well was estimated by the MTT test. Briefly, 50 µL (5 mg/mL final concentration) of MTT was added to each microplate well. This procedure was then followed by a three- to four-hour incubation at 37 °C. After incubation, MTT solution was replaced with 100 µL DMSO/well, which solubilized the formazan crystals formed by the dehydrogenases of metabolically active cells. Purple formazan absorbance was measured spectrophotometrically at 570 nm.

Structure (SMILES)	IC50
Cc1cc(O)n(C(N)=S)n1.Cc1ccc(C(C)C)cc1.F[P-](F)(F)(F)(F)F.[Cl-].[Ru+2] [3d]	185.2 ± 1.8 µM
Cc1ccc(C(C)C)cc1.Cc1ccc(C(C)C)cc1.[Cl][Ru][Cl].[Cl][Ru][Cl] [compound 4, dichloro(p-cymene)ruthenium(II), reference compound]	> 200 µM

System: Colo205
Experiment: MTT cytotoxicity, Colo205
Type: cell-based, human
Conditions: 48 h incubation, read-out: Cytotoxic effect, IC50
Description: as §1, §2

Structure (SMILES)	IC50
Cc1cc(O)n(C(N)=S)n1.Cc1ccc(C(C)C)cc1.F[P-](F)(F)(F)(F)F.[Cl-].[Ru+2] [3d]	> 200 µM
Cc1ccc(C(C)C)cc1.Cc1ccc(C(C)C)cc1.[Cl][Ru][Cl].[Cl][Ru][Cl] [compound 4, dichloro(p-cymene)ruthenium(II), reference compound]	> 200 µM

System: SW620
Experiment: MTT cytotoxicity, SW620
Type: cell-based, human
Conditions: 48 h incubation, read-out: Cytotoxic effect, IC50
Description: as §1, §2

Structure (SMILES)	IC50
Cc1cc(O)n(C(N)=S)n1.Cc1ccc(C(C)C)cc1.F[P-](F)(F)(F)(F)F.[Cl-].[Ru+2] [3d]	> 200 µM
Cc1ccc(C(C)C)cc1.Cc1ccc(C(C)C)cc1.[Cl][Ru][Cl].[Cl][Ru][Cl] [compound 4, dichloro(p-cymene)ruthenium(II), reference compound]	> 200 µM

System: LoVo
Experiment: MTT cytotoxicity, LoVo
Type: cell-based, human
Conditions: 48 h incubation, read-out: Cytotoxic effect, IC50
Description: as §1, §2

Structure (SMILES)	IC50
Cc1cc(O)n(C(N)=S)n1.Cc1ccc(C(C)C)cc1.F[P-](F)(F)(F)(F)F.[Cl-].[Ru+2] [3d]	110 ± 6.9 µM
Cc1ccc(C(C)C)cc1.Cc1ccc(C(C)C)cc1.[Cl][Ru][Cl].[Cl][Ru][Cl] [compound 4, dichloro(p-cymene)ruthenium(II), reference compound]	168 ± 7 µM

System: Caco2
Experiment: MTT cytotoxicity, Caco2
Type: cell-based, human
Conditions: 48 h incubation, read-out: Cytotoxic effect, IC50
Description: as §1, §2

Structure (SMILES)	IC50
Cc1cc(O)n(C(N)=S)n1.Cc1ccc(C(C)C)cc1.F[P-](F)(F)(F)(F)F.[Cl-].[Ru+2] [3d]	162 ± 6.1 µM
Cc1ccc(C(C)C)cc1.Cc1ccc(C(C)C)cc1.[Cl][Ru][Cl].[Cl][Ru][Cl] [compound 4, dichloro(p-cymene)ruthenium(II), reference compound]	> 200 µM

System: Hep 3b
Experiment: MTT cytotoxicity, Hep 3b
Type: cell-based, human
Conditions: 48 h incubation, read-out: Cytotoxic effect, IC50
Description: as §1, §2

Structure (SMILES)	IC50
Cc1cc(O)n(C(N)=S)n1.Cc1ccc(C(C)C)cc1.F[P-](F)(F)(F)(F)F.[Cl-].[Ru+2] [3d]	> 200 µM
Cc1ccc(C(C)C)cc1.Cc1ccc(C(C)C)cc1.[Cl][Ru][Cl].[Cl][Ru][Cl] [compound 4, dichloro(p-cymene)ruthenium(II), reference compound]	167 ± 6.8 µM

System: HEC1A
Experiment: MTT cytotoxicity, HEC1A
Type: cell-based, human
Conditions: 48 h incubation, read-out: Cytotoxic effect, IC50
Description: as §1, §2

Structure (SMILES)	IC50
Cc1cc(O)n(C(N)=S)n1.Cc1ccc(C(C)C)cc1.F[P-](F)(F)(F)(F)F.[Cl-].[Ru+2] [3d]	128 ± 2.1 µM
Cc1ccc(C(C)C)cc1.Cc1ccc(C(C)C)cc1.[Cl][Ru][Cl].[Cl][Ru][Cl] [compound 4, dichloro(p-cymene)ruthenium(II), reference compound]	108 ± 3.4 µM

System: Ishikawa
Experiment: MTT cytotoxicity, Ishikawa
Type: cell-based, human
Conditions: 48 h incubation, read-out: Cytotoxic effect, IC50
Description: as §1, §2

Structure (SMILES)	IC50
Cc1cc(O)n(C(N)=S)n1.Cc1ccc(C(C)C)cc1.F[P-](F)(F)(F)(F)F.[Cl-].[Ru+2] [3d]	> 200 µM
Cc1ccc(C(C)C)cc1.Cc1ccc(C(C)C)cc1.[Cl][Ru][Cl].[Cl][Ru][Cl] [compound 4, dichloro(p-cymene)ruthenium(II), reference compound]	120 ± 7.2 µM

System: Hela
Experiment: MTT cytotoxicity, Hela
Type: cell-based, human
Conditions: 48 h incubation, read-out: Cytotoxic effect, IC50
Description: as §1, §2

Structure (SMILES)	IC50
Cc1cc(O)n(C(N)=S)n1.Cc1ccc(C(C)C)cc1.F[P-](F)(F)(F)(F)F.[Cl-].[Ru+2] [3d]	> 200 µM
Cc1ccc(C(C)C)cc1.Cc1ccc(C(C)C)cc1.[Cl][Ru][Cl].[Cl][Ru][Cl] [compound 4, dichloro(p-cymene)ruthenium(II), reference compound]	> 200 µM

System: A549
Experiment: MTT cytotoxicity, A549
Type: cell-based, human
Conditions: 48 h incubation, read-out: Cytotoxic effect, IC50
Description: as §1, §2

Structure (SMILES)	IC50
Cc1cc(O)n(C(N)=S)n1.Cc1ccc(C(C)C)cc1.F[P-](F)(F)(F)(F)F.[Cl-].[Ru+2] [3d]	152 ± 2.8 µM
Cc1ccc(C(C)C)cc1.Cc1ccc(C(C)C)cc1.[Cl][Ru][Cl].[Cl][Ru][Cl] [compound 4, dichloro(p-cymene)ruthenium(II), reference compound]	> 200 µM

System: HCC38
Experiment: MTT cytotoxicity, HCC38
Type: cell-based, human
Conditions: 48 h incubation, read-out: Cytotoxic effect, IC50
Description: as §1, §2

Structure (SMILES)	IC50
Cc1cc(O)n(C(N)=S)n1.Cc1ccc(C(C)C)cc1.F[P-](F)(F)(F)(F)F.[Cl-].[Ru+2] [3d]	188 ± 6.4 µM
Cc1ccc(C(C)C)cc1.Cc1ccc(C(C)C)cc1.[Cl][Ru][Cl].[Cl][Ru][Cl] [compound 4, dichloro(p-cymene)ruthenium(II), reference compound]	> 200 µM

System: MCF7
Experiment: MTT cytotoxicity, MCF7
Type: cell-based, human
Conditions: 48 h incubation, read-out: Cytotoxic effect, IC50
Description: as §1, §2

Structure (SMILES)	IC50
Cc1cc(O)n(C(N)=S)n1.Cc1ccc(C(C)C)cc1.F[P-](F)(F)(F)(F)F.[Cl-].[Ru+2] [3d]	> 200 µM
Cc1ccc(C(C)C)cc1.Cc1ccc(C(C)C)cc1.[Cl][Ru][Cl].[Cl][Ru][Cl] [compound 4, dichloro(p-cymene)ruthenium(II), reference compound]	> 200 µM

System: WM115
Experiment: MTT cytotoxicity, WM115
Type: cell-based, human
Conditions: 48 h incubation, read-out: Cytotoxic effect, IC50
Description: as §1, §2

Structure (SMILES)	IC50
Cc1cc(O)n(C(N)=S)n1.Cc1ccc(C(C)C)cc1.F[P-](F)(F)(F)(F)F.[Cl-].[Ru+2] [3d]	> 200 µM
Cc1ccc(C(C)C)cc1.Cc1ccc(C(C)C)cc1.[Cl][Ru][Cl].[Cl][Ru][Cl] [compound 4, dichloro(p-cymene)ruthenium(II), reference compound]	> 200 µM

System: NALM6
Experiment: MTT cytotoxicity, NALM6
Type: cell-based, human
Conditions: 48 h incubation, read-out: Cytotoxic effect, IC50
Description: as §1, §2

Structure (SMILES)	IC50
Cc1cc(O)n(C(N)=S)n1.Cc1ccc(C(C)C)cc1.F[P-](F)(F)(F)(F)F.[Cl-].[Ru+2] [3d]	> 200 µM
Cc1ccc(C(C)C)cc1.Cc1ccc(C(C)C)cc1.[Cl][Ru][Cl].[Cl][Ru][Cl] [compound 4, dichloro(p-cymene)ruthenium(II), reference compound]	> 200 µM

System: HL60
Experiment: MTT cytotoxicity, HL60
Type: cell-based, human
Conditions: 48 h incubation, read-out: Cytotoxic effect, IC50
Description: as §1, §2

Structure (SMILES)	IC50
Cc1cc(O)n(C(N)=S)n1.Cc1ccc(C(C)C)cc1.F[P-](F)(F)(F)(F)F.[Cl-].[Ru+2] [3d]	> 200 µM
Cc1ccc(C(C)C)cc1.Cc1ccc(C(C)C)cc1.[Cl][Ru][Cl].[Cl][Ru][Cl] [compound 4, dichloro(p-cymene)ruthenium(II), reference compound]	> 200 µM

System: not listed separately
Experiment: Lipophilicity by RP-TLC
Type: physicochemical
Parameters: key: RM = log(1/Rf − 1), Rf = a/b
Conditions: eluent AcCN: H2O at 30–70% v/v, 22 °C
Description: All the experimental solutions of standard substances (0.1 mg/mL) were prepared by dissolving ligands (1a–1d) or ruthenium complexes (2a/3a–2d/3d) in ethanol. Commercially-available octadecyl-modified silica aluminum sheets (20 × 20 cm) were cut into 5 × 10 cm plates. The plates were manually spotted with 1.0 μL of freshly prepared solutions using automatic pipets, 5 mm from each edge. The chromatograms for all compounds (1a/2a/3a–1d/2d/3d) were developed using a horizontal developing chamber and the solvent migration distance was about 4.5 cm. The plates were visually inspected under UV light at 254 nm. Each zone was clearly marked and its distance was manually measured. The RP-TLC analyses of lipophilicity were performed at ambient temperature (22 °C). In this experiment, all measurements were performed in triplicate and the obtained results were used in further calculations. The acetonitrile and water mixtures for ligands 1a–1d and arene–ruthenium(II) complexes 2a/3a–2d/3d were used as mobile phases, with […] content increasing in the range of 30–70% v/v, at 5% intervals. Values of the chromatographic retention coefficient Rf (as shown Formula (1)) and RM (as shown Formula (2)), based on received chromatograms, were calculated and converted as follows:(1) Rf=a/b (2) RM=log1/Rf−1

Structure (SMILES)	Lipophilicity, RM
Cc1cc(O)n(C(N)=S)n1.Cc1ccc(C(C)C)cc1.F[P-](F)(F)(F)(F)F.[Cl-].[Ru+2] [3d]	2.39
